From patent US12491187B2, “Use of MCT1 inhibitors to enhance insulin sensitivity” (H. LEE MOFFIT CANCER CENTER AND RESEARCH INSTITUTE, INC., priority 2022, dated 2025) come the findings set out here.

What all share (assay type): cell-based, murine
For assay [1], the system named is differentiated 3T3-L1 adipocytes. In words: Intracellular lactate (Lactate-Glo). As to conditions: 1 μM. As for the experimental part:
Intracellular Lactate: Intracellular lactate was measured using the Lactate-Glo™ Assay Kit (Promega®) according to the manufacturer's instructions. 3T3-L1 cells were seeded and differentiated in white clear bottom 96-well plates (Corning®). After differentiation, cells were treated with compound or vehicle as indicated. Following 15 min, 30 min, 1 hr, 4 hr, 8 hr or 24 hr incubation with […] AZD6965, media was removed, and cells were lysed. Lysates were then subjected to a proprietary enzymatic reaction coupling lactate oxidation and NADH production with a bioluminescent detection system supplied by the Lactate-Glo™ Assay kit, and luminescence was read on a spectrophotometer (FlexStation 3; Molecular Devices). The data generated were normalized by dividing the relative luminescence units (RLU) collected for each experimental condition by the average RLU of vehicle control.

For another assay, the system named is 3T3-L1-shScramble cells. In words: Glucose uptake (Glucose Uptake-Glo) in shScramble control cells. As to conditions: 1 μM for 72 hr, 175 nM insulin. As to the method:
Cell Line Development: Lenti plasmid vectors containing shRNA targeting MCT1 or a shScramble sequence were purchased from Genocopia. Lentiviral particles were produced using HEK293T cells and a third-generation packaging system, MISSION Lentiviral Packaging Mix, as per manufacturer's (Sigma-Aldrich) recommendations. To generate shMCT1 cells, 3T3-L1 cells were seeded and transduced with optimized titers of freshly harvested lentivirus. 12 hr after transduction, medium was changed, and cells were allowed to recover for 24 h before being placed under antibiotic selection (2 μg/mL puromycin [Clontech]) for 3-6 days. Cells surviving antibiotic selection were harvested for both reverse transcription quantitative chain polymerase reaction (RT-qPCR) and immunoblotting analyses.
Glucose Uptake: 3T3-L1 cells were seeded and differentiated in clear bottom 96-well plates (Corning®). After differentiation, cells were treated with or without […] AZD3965 for 24 hr, 48 hr or 72 hr as illustrated in FIG. 7 (schematic outline of experimental procedure). The cells were incubated in serum free media the night before performing the assay. […] Glucose Uptake was measured using the Glucose Uptake-Glo™ Assay (Promega®) according to the manufacturer's protocol. The data generated were normalized by dividing the relative luminescence units (RLU) measured in insulin stimulated wells by vehicle treated controls. […]

In assay [2] the test system is differentiated 3T3-L1 cells. In words: Lipolysis (intracellular glycerol, Glycerol-Glo). As to conditions: 1 μM, all time points measured (24, 48, 72 hr). As for the experimental part:
Lipolysis (Intracellular Glycerol): 3T3-L1 cells were seeded, differentiated and treated with or without AZD3965 (1 μM) for up to 72 hr in clear 96 well plates (Corning®). After media removal and washing cells with PBS, the Glycerol-Glo™ (Promega®) assay kit was used to assess changes in lipolysis through the quantification of intracellular glycerol according to the manufacturer's instructions. A luminescent signal is produced that is proportional to the amount of glycerol within the sample Luminescence was read on a spectrophotometer (FlexStation 3; Molecular Devices).

In assay [3] the test system is differentiated 3T3-L1 (WT) cells. Nature of the assay: Oil Red O staining of fully differentiated adipocytes. As to conditions: 1 μM, 24 hr, 48 hr or 72 hr. As to the method:
Differentiation Protocol: The 3T3-L1 differentiation protocol was adapted from Green and Meuth (1974) (Zebisch, K, et al. Anal. Biochem. 2012 425:88-90; Green, H, et al. Cell 1974 3:127-133). Cells were seeded at approximately 80% confluency and allowed to reach confluency prior to induction of differentiation. 1-2 days post confluency, growth media was changed to ‘day 0’ media consisting of media supplemented with 0.5 mM 1-methyl-3-isobutyl xanthine (IBMX), 1 µM dexamethasone, and 10 μg/mL insulin. On ‘day 3’ media was changed to growth media with 10 μg/mL insulin only, and on ‘day 6’ media was replaced with normal growth media. After day 6, the complete media was refreshed every 2 days. Using Oil Red O staining, RT-qPCR and immunoblotting, it was determined that 3T3-L1 cells were fully differentiated into lipid-laden adipocytes by ‘day 8’ of the protocol, as reported by others (Petersen, C, et al. Sci. Rep. 2017 7:13101; Mangum, L H, et al. Toxicol. Lett. 2015 238:65-71). All differentiation experiments were performed on cells between passage 4 and 6 to ensure differentiation efficiency was consistent. Oil Red O Staining: Cells were then fixed with 4% PFA for 10 minutes. […] 10× images of cells were taken from randomized fields of view with the Cytation 5 Cell Imaging Multi-Mode reader (BioTek Instruments). Lipid content was also quantified on the Cytation 5.

In assay [4] the test system is differentiated 3T3-L1 adipocytes. In words: Intracellular pyruvate (Amplite fluorimetric assay). The following applies: 1 μM. As to the method:
Intracellular Pyruvate: Intracellular pyruvate was measured using the Amplite™ Fluorimetric Pyruvate Assay Kit (AAT Bioquest) according to the manufacturer's instructions. 3T3-L1 cells were seeded and differentiated in white clear bottom 96-well plates (Corning®). After differentiation, cells were treated with compound or vehicle as indicated. Following 15 min, 30 min, 1 hr, 4 hr, 8 hr or 24 hr incubation with 1 μM AZD6965, media was removed, and cells were lysed with ReadiUse™ mammalian cell lysis buffer (AAT Bioquest). Lysates were then subjected to an enzyme-coupled reaction with the Quest Fluor™ Pyruvate Sensor resulting in an […] detected at 575 nm which is proportional to the quantity of pyruvate within the sample. Absorbance was read on a spectrophotometer (FlexStation 3; Molecular Devices).

Assay [5] relates to differentiated 3T3-L1 (WT) cells. In words: Glucose uptake (Glucose Uptake-Glo) in WT adipocytes. The following applies: for insulin-stimulated glucose uptake: then 175 nM insulin 30 minutes. As to the method: Glucose Uptake: 3T3-L1 cells were seeded and differentiated in clear bottom 96-well plates (Corning®). After differentiation, cells were treated with or without […] AZD3965 for 24 hr, 48 hr or 72 hr as illustrated in FIG. 7 (schematic outline of experimental procedure). The cells were incubated in serum free media the night before performing the assay. The following day/morning, media was changed to serum and glucose free media for 2 hr prior to the experiment. Cells were then stimulated with 175 nM Insulin or vehicle (PBS) for 30 minutes. Glucose Uptake was measured using the Glucose Uptake-Glo™ Assay (Promega®) according to the manufacturer's protocol. The data generated were normalized by dividing the relative luminescence units (RLU) measured in insulin stimulated wells by vehicle treated controls. The aforementioned experiment was repeated in the presence of the CDK1 inhibitor, RO-3306 (10 μM), where indicated (FIG. 5C).

In the case of `Cc1[nH]nc(C(F)(F)F)c1Cc1sc2c(c1C(=O)N1C[C@](C)(O)CO1)c(=O)n(C)c(=O)n2C(C)C` [AZD3965, 5-[[(4S)-4-hydroxy-4-methyl-2-isoxazolidinyl]carbonyl]-3-methyl-1-(1-methylethyl)-6-[[5-methyl-3-(trifluoromethyl)-1H-pyrazol-4-yl]methyl]-thieno[2,3-d]pyrimidine-2,4 (1H, 3H)-dione], in assay [1] (after 24 hr), the “intracellular lactate levels relative to basal” value was “approximately 2 fold”. The intracellular lactate result in assay [1] (within 15 minutes, maintained through first 4 hr) is “significant increase”. Further, the insulin-stimulated glucose uptake result in the assay on 3T3-L1-shScramble cells is “augmented”; in assay [5] (1 μM for 24 hr), “did not reach statistical significance”; in assay [5] (1 μM for 48 hr and 72 hr), “significant increase”. In assay [2], the “intracellular glycerol levels (lipolysis)” value is “significantly increased”. Also, in assay [3], the “lipid content (Oil Red O staining) of differentiated adipocytes” value is reported as “progressive decrease in lipid content”. Moreover, the intracellular pyruvate levels result in assay [4] (after 24 hr) is recorded as “not significantly altered”. The intracellular pyruvate entry in assay [4] (first 8 hr of treatment) was “significant increase”. For the same molecule, the “basal, non-insulin stimulated glucose uptake” value in assay [5] (1 μM, 24-72 hr) is listed as “no impact”.
